System: NALCN
Assay: Circulating ZsGreen+ cells (CZCs) in peripheral blood of non-tumour-bearing mice after NALCN blockade
Format: in vivo
Conditions: Prom1^CreERT2/Lacz; Rosa26^ZSG; Nalcn^+/+ mice without oncogenic alleles, n=10; FIG. 1a
Experimental: Peripheral blood (500 μl-1 ml) was harvested from mice at autopsy into 10 μl of 0.5M EDTA, diluted in PBS and assessed by MACSQuant Analyzer (Miltenyi Biotech Inc.) for ZSgreen expression (525/50 nm [FITC] vs 614/50 nm [PI]). Cells for single cell RNA sequencing and tail vein injection were sorted using a BD FACSAria II Cell Sorter (BD Biosciences) excitation at 525/50 nm (FITC) vs 614/50 nm (PI). Non-tamoxifen induced mouse peripheral blood served as a negative control to set gate parameters. Twenty-five thousand ZSG^+ cells were sorted and injected into recipient NOD SCID gamma mice (Charles River) and aged. For serial dilution assessment of tCZC metastasis initiation, tCZCs were isolated from donor tumour-bearing via FACS based on ZSGreen expression and placed into culture medium. Culture medium: Advanced DMEM/F12 (31330038, ThermoFisher), 2 mM L-glutamine (25030024, ThermoFisher), B27 (12587010, ThermoFisher), N2 (A1370701, ThermoFisher), containing growth factors (50 ng/ml EGF [Peprotech], 100 ng/ml bFGF [100-18c, Peprotech] and 1% FBS (10500064, ThermoFisher). Cells were grown at 37° C. in 5% CO2. Recipient NOD SCID gamma mice (Charles River) were injected with either 10, 100, 1,000 or 10,000 tCZC cells via tail-vein injection and aged. Full autopsy and tissue harvesting were performed as described above.

[Cl][Gd]([Cl])[Cl] [Gadolinium chloride]
numbers of CZCs (circulating ZSG+ cells) in peripheral blood; stem cell-like cell shedding: significantly increased

From patent publication US20260284115A1, “THERAPEUTICS AND METHODS” (CAMBRIDGE ENTERPRISE LIMITED, priority 2022, published 2026)
